Experimental data from patent US3998963A, “Tertiary butyl substituted carbamoyl oxime pesticides” (priority 1975, dated 1976).
In brackets after ≈: the same amount, converted by molar mass. Read-outs that look alike come from different tables or passages of the source.

What was measured:
Format in all cases: in vivo
[1] = system: bean aphid (Aphis fabae Scop.); assay: Bean Aphid Foliage Spray Test; conditions: foliar, 24 hour holding period, read-out: Insect LD50, Aphid
Protocol: (§1) Suspensions of the test compouns were prepared by dissolving one gram of compound in 50 milliliters of acetone in which had been dissolved 0.1 gram (10 percent of the weight of compound) of an alkylphenoxy polyethoxyethanol surfactant, as an emulsifying or dispersing agent. The resulting solution was mixed into 150 milliliters of water to give roughly 200 milliliters of a suspension containing the compound in finely divided form. The thus-prepared stock suspension contained 0.5 percent by weight of compound. The test concentrations in parts per million by weight employed in the tests described hereinbelow were obtained by appropriate dilutions of the stock suspension with water. The test procedures were as follows:
Bean Aphid Foliage Spray Test
Adults and nymphal stages of the bean aphid (Aphis fabae Scop.) reared on potted dwarf nasturtium plants at 65°-70° F. and 50-70 per cent relative humidity, constituted the test insects. For testing purposes, the number of aphids per pot was standardized to 100-150 by trimming plants containing excess aphids.
The test compounds were formulated by diluting the stock suspension with water to give a suspension containing 500 parts of test compound per million parts of final formulation.
The potted plants (one pot per compound tested) infested with 100-150 aphids, were placed on a revolving turntable and sprayed with 100 -110 milliliters of test compound formulation by use of a DeVilbiss spray gun set at 40 psig. air pressure. This application, which lasted 25 seconds, was sufficient to wet the plants to run-off. As a control, 100-110 milliliters of a water-acetone-emulsifier solution containing no test compound were also sprayed on infested plants. After spraying, the pots were placed on their sides on a sheet of white standard mimeograph paper which had peen previously ruled to facilitate counting. Temperature and humidity in the test room during the 24 hour holding period were 65°-70° F. and 50-70 per cent, respectively. Aphids which fell onto the paper and were unable to remain standing after being uprighted were considered dead. Aphids remaining on the plants were observed closely for movement and those which were unable to move the length of the body upon stimulation by prodding were considered dead. Per cent mortality was recorded for various concentration levels.

[2] = system: Mexican bean beetle (Epilachna varivestis, Muls.); assay: Mexican Bean Beetle Leaf Spray Test; conditions: 72 h, 3 days, read-out: Insect LD50, Beetle
Protocol: as §1
Mexican Bean Beetle Leaf Spray Test
Fourth instar lavae of the Mexican bean beetle (Epilachna varivestis, Muls.), reared on Tendergreen bean plants at a temperature of 80°±5° F. and 50±5 per cent relative humidity, were the test insects.
The test compounds were formulated by diluting the stock suspension with water to give a suspension containing 500 parts of test compound per million parts of final formulation. Potted Tendergreen bean plants of standard height and age were placed on a revolving turntable and sprayed with 100-110 milliliters of test comound formulation by use of a DeVilbiss spray gun set at 10 psig air pressure. This application, which lasted 25 seconds, was sufficient to wet plants to run-off. As a control, 100-110 milliliters of a water-acetone-emulsifier solution containing no test compound were also sprayed on infested plants. When dry, the paired leaves were separated and each was placed in a 9 centimeter Petri dish lined with moistened filter paper. Five randomly selected larvae were introduced into each dish, and the dishes were closed. The closed dishes were labeled and held at a temperature of 80°±5° F, for 3 days. Although the larvae could easily consume the leaf within 24 to 48 hours, no more food was added. Larvae which were unable to move the length of the body, even upon stimulation, were considered dead.

[3] = system: houseflies (Musca domestica, L.); assay: Fly Immersion Test; conditions: for LC50: Musca domestica, immersion (contact), 24 hours, read-out: Imm LD50, Housefly; for (Imm/Bait), Housefly: ratio immersion/bait LD50; for contact vs stomach poison, house fly (in words): immersion vs bait
Protocol: as §1
The test organisms used were 4 to 6 day old adult houseflies (Musca domestica, L.) reared under controlled conditions of 80° + 5° F. and 50 + 5 percent relative humidity. The adult flies were immobilized by anesthetizing with CO2. Twenty-five immobilized individuals (males and females) were then used for the test of each test compound.
Twenty-five randomly selected adult flies were thoroughly wetted in a formulated mixture of the test chemical (50 ml) by pouring the insects and formulation from one beaker to another six times. Excess liquid was removed by transferring the insects into a standard food strainer (5-inch diameter) which was then blotted with a paper towel. The treated flies were transferred to clean food strainer which was inverted over a paper cup containing a wad of cotton saturated with a 10 percent aqueous sugar solution provided as food for surviving insects. An equivalent amount of a water solution containing acetone and emulsifier in the same concentrations as the insecticidal mixture but without the candidate insecticide was applied to other flies in the same manner. These insects serve as controls for the experiment.
The surviving caged flies were allowed to feed on the sugar water for a period of 24 hours. Room temperature and humidity are 80° + 5° F. and 50 + 5 percent relative humidity, respectively. At the end of the holding period flies which show no sign of movement upon stimulation were considered dead.
(§2) In Table 1 are presented insect and rat toxicity data (bait tests) on a comparative basis of the compounds described above. […] Rat toxicity is also more meaningfully compared on the basis of molar weight LD50 values. The relative efficacy of the parent compounds as compared to the previously known derivatives and as compared to the new compounds of this invention is also shown in Table 1. The ratio of efficacy as contact poisons (immersion/bait) of the compounds tested against Armyworm and House Fly is presented in Table 2 along with the results of the phytotoxicity tests of the compounds on bean, corn, tomato and cotton.

[4] = Mammalian Toxicity (peroral, rat); conditions: rat, in vivo, po, peroral
Protocol: (§3) These compositions were also evaluated to determine their peroral toxicity to mammals by conventional methods. The animal selected for this experiment was the rat. The test results obtained are expressed in terms of the number of milligrams of composition per kilogram of weight of the animal required to achieve a mortality rate of 50 percent (LD50).
as §2

[5] = system: rat; assay: Mammalian Toxicity (peroral, rat); conditions: for (b) relative value of derivative vs parent compound, Rat LD50: peroral, formula of footnote b is drawing 8; for mammalian toxicity (in words): text statement
Protocol: as §3, §2

[6] = system: cotton; assay: Phytotoxicity Test, cotton; conditions: for Phytotoxicity, Cotton: 2500 parts per million, ten days; for phytotoxicity to cotton (in words): text statement
Protocol: as §1
Experiments were also conducted to determine the phytotoxicity of representative compositions with respect to healthy fresh plants. Solutions of the compounds were prepared as described above to provide a concentration of 2500 parts per million of the test compound. The test plants were sprayed in accordance with the procedure described above for the Mite Foliage Spray Test so as to deliver approximately 100 milliliters of test solution to the leaves of each plant tested. The sprayed plants and controls were set aside for approximately one hour to allow the foliage to dry and were then placed in the greenhouse. After ten days the plants were visually inspected to determine the extent of foliage injury. A rating of 1 indicates no perceptible injury; 5 indicates the plant was dead and ratings of 2, 3 and 4 indicate intermediate degrees of injury based upon the number and extent to which leaves were injured.

[7] = Table II, read-out: Rat Tox. LD50
[8] = molar weight LD50, Table I, read-out: Rat LD50/mole wt. [a]

| Compound | LC50 [1] [µg/mL] | LC50 [2] [µg/mL] | LC50 [3] [µg/mL] | (Imm/Bait), Housefly [3] | LD50 ([4]; Table I, read-out: Rat LD50) [mg/kg] | LD50 [4, 7] [mg/kg] | LD50 [4, 8] [µmol/kg] | (b) relative value of derivative vs parent compound, Rat LD50 [5] | Phytotoxicity, Cotton [6] | contact vs stomach poison, house fly (in words) [3] | phytotoxicity to cotton (in words) [6] | LD50 ([4]; read-out: rat LD50 (molar)) [µmol/kg] | mammalian toxicity (in words) [5] | safety relative to the parent (molar) ([5]; vs parent compound, molar basis) | less toxic to mammals than its parent compound, weight basis ([5]; vs parent compound, weight basis) | mammalian toxicity (in words) ([5]; listed as O-[ N-methyl-N-[4-(t-butylphenyl) sulfenyl] carbamoyl] S-isopropyl thiolacetohyd) | more toxic to mammals than the parent compound ([5]; molar LD50 comparison, vs compound 1) |
| --- | --- | --- | --- | --- | --- | --- | --- | --- | --- | --- | --- | --- | --- | --- | --- | --- | --- |
| CC(=NOC(=O)N(C)Sc1ccc(C)cc1)SC(C)C [Compound 7] | 5 (≈ 16 µM) | 15 (≈ 48 µM) | 25 (≈ 80 µM) | 0.5 | 18.7 | 16.2 | 60 | 0.67 |  |  |  |  |  |  |  |  |  |
| CSC(C)=NOC(=O)N(C)Sc1ccc(Cl)cc1 [Compound 4] | 2 (≈ 6.56 µM) | 70 (≈ 230 µM) | 24 (≈ 78.7 µM) | 3 | 65 | 65 | 210 | 1.43 | *Bu 3 |  |  |  |  |  |  |  |  |
| CSC(C)=NOC(=O)N(C)Sc1ccc(C(C)(C)C)cc1 [Compound 8, O-[N-Methyl-N-[4-(t-butylphenyl)sulfenyl]carbamoyl] S-Methyl Acetothiolhydroximate] | 2.5 (≈ 7.66 µM) | 20 (≈ 61.3 µM) | 14 (≈ 42.9 µM) | 0.8 | 196 | 196 |  | 0.5 | Bu 2 | outstanding contact poison | moderate leaf burn injury | 600 | extremely low mammalian toxicity | about twice as safe as the parent | at least 4 times |  |  |
| CC(=NOC(=O)N(C)Sc1ccc(Cl)cc1)SC(C)C [Compound 5] | 3 (≈ 9.01 µM) | 50 (≈ 150 µM) | 25 (≈ 75.1 µM) | 0.5 | 16.2 | 16.2 | 48 | 0.83 | Bu 2 |  |  |  |  |  |  |  |  |
| CC(=NOC(=O)N(C)Sc1ccc(C(C)(C)C)cc1)SC(C)C [Compound 9, O-[N-Methyl-N-[4-(t-Butylphenyl)sulfenyl]carbamoyl] S-Isopropyl Thiolacetohydroximate] | 9 (≈ 25.4 µM) | 30 (≈ 84.6 µM) | 10 (≈ 28.2 µM) | 0.2 | 71.3 | 71.3 | 200 | 0.2 |  |  |  |  | substantial reduction in mammalian toxicity |  |  | very low level of mammalian toxicity |  |
| CCSC(C)=NOC(=O)NC [Compound 3] | 12 (≈ 68.1 µM) | 38 (≈ 216 µM) |  |  |  | 17.7 |  |  | 2 |  |  |  |  |  |  |  |  |
| CNC(=O)ON=C(C)SC(C)C [Compound 2] | 25 (≈ 131 µM) | 30 (≈ 158 µM) | 66 (≈ 347 µM) | 6 | 7.7 | 7.7 | 40 |  | Bu 2 | significantly more toxic as stomach poisons than as contact poisons |  |  |  |  |  |  |  |
| CSC(C)=NOC(=O)N(C)Sc1ccc(C)cc1 [Compound 6] | 5 (≈ 17.6 µM) | 15 (≈ 52.7 µM) | 14 (≈ 49.2 µM) | 7 | 56.6 | 56.6 |  | 1.5 | Bu 2 |  |  | 200 |  |  |  |  | at least 50% |
| CNC(=O)ON=C(C)SC [Compound 1, O-(methylcarbamoyl) S-methyl acetothiolhydroximate] | 4 (≈ 24.7 µM) | 70 (≈ 432 µM) | 32 (≈ 197 µM) | 8 | 48.5 | 48.5 |  |  | *Bu 3 | significantly more toxic as stomach poisons than as contact poisons | so great as to significantly curtail the use of this otherwise highly desirable pesticide on cotton | 330 |  |  |  |  |  |
